Calls of active or inactive are those of the source. The calls are words filed in the database; no cut-off is given here.
Key:
[1] = target: Rho-associated protein kinase 1 (Homo sapiens, UniProt Q13464); assay: Inhibition of N-terminal GST-tagged human ROCK1 catalytic domain (1 to 477 residues) expressed in baculovirus expression system using biotin-STK-substrate 2 as substrate preincubated with enzyme for 5 mins followed by ATP addition and measured after 2 hrs by TR-FRET assay
Homo sapiens [2] = species on record: Homo sapiens; assay: Selectivity index, ratio of IC50 N-terminal GST-tagged human ROCK1 catalytic domain (1 to 477 residues) expressed in baculovirus expression system to IC50 for N-terminal GST-fused full-length human CDC7 (1 to 574 end residues)/DBF4 (1 to 674 residues) expressed in baculovirus expression system
[3] = target: T1, CDC7/DBF4 (Cell division cycle 7-related protein kinase/Activator of S phase kinase) (Homo sapiens, UniProt O00311); assay: Inhibition of N-terminal GST-fused full-length human CDC7 (1 to 574 end residues)/DBF4 (1 to 674 residues) expressed in baculovirus expression system using MCM2 as substrate preincubated with enzyme for 10 mins prior to 1 uM ATP addition by HTRF transcreener ADP assay
[4] = target: Cyclin-dependent kinase 2/cyclin E1 (Homo sapiens, UniProt P24941); assay: Inhibition of N-terminal GST-tagged full-length human CDK2 (1 to 298 residues)/Cyclin E (1 to 410 residues) expressed in baculovirus expression system using histone H1 as susbtrate after 90 mins by Kinase-Glo luminescence assay
Homo sapiens [5] = species on record: Homo sapiens; assay: Selectivity index, ratio of IC50 for N-terminal GST-tagged full-length human CDK2 (1 to 298 residues)/Cyclin E (1 to 410 residues) expressed in baculovirus expression system to IC50 for N-terminal GST-fused full-length human CDC7 (1 to 574 end residues)/DBF4 (1 to 674 residues) expressed in baculovirus expression system
[6] = target: T1, CDC7/DBF4 (Cell division cycle 7-related protein kinase/Activator of S phase kinase); assay: Inhibition of N-terminal GST-fused full-length human CDC7 (1 to 574 end residues)/DBF4 (1 to 674 residues) expressed in baculovirus expression system using MCM2 as substrate in presence of 50 uM ATP by HTRF transcreener ADP assay
[7] = target: T1, CDC7/DBF4 (Cell division cycle 7-related protein kinase/Activator of S phase kinase); assay: Inhibition of N-terminal GST-fused full-length human CDC7 (1 to 574 end residues)/DBF4 (1 to 674 residues) expressed in baculovirus expression system using MCM2 as substrate preincubated with enzyme for 60 mins prior to 50 uM ATP addition by HTRF transcreener ADP assay
COLO 205 = assay: Antiproliferative activity against human COLO205 cells assessed as reduction in cell growth after 3 days by CellTiter-Glo luminescence assay; type: functional, cell-based; details: COLO 205, 72 h
[8] = target: T2, Cell division cycle 7-related protein kinase (Homo sapiens, UniProt O00311); assay: Inhibition of CDC7 in human HeLa cells assessed as inhibition of MCM2 phosphorylation at Ser40 residue in human HeLa cells after 7 hrs by Western blot analysis; type: cell-based
[9] = Drug metabolism in reaction buffer containing 20 mM HEPES, 10 mM Mg(OAc)2, and 1 mM DTT at pH 7.5
[10] = Drug metabolism in reaction buffer containing 25 mM HEPES, 0.1% Tween 20, 0.01% BSA, 10 mM Mg(OAc)2, and 1 mM DTT at pH 7.5
[11] = Drug metabolism in aqueous media assessed as formaldehyde adduct formation at 5 nmol after 30 mins in presence of excess formaldehyde by QTOF-UPLC analysis
[12] = Drug metabolism in reaction buffer containing 50 mM HEPES, 0.1 mM orthovanadate, 0.01% BSA, 10 mM MgCl2, and 1 mM DTT at pH 7.5
[13] = target: T2, Cell division cycle 7-related protein kinase; assay: Binding affinity to CDC7 (unknown origin) assessed as equilibrium dissociation constant
[14] = target: Dual specificity protein kinase CLK1 (Homo sapiens, UniProt P49759); assay: Inhibition of recombinant human GST-tagged CLK1 catalytic domain (129 to 484 residues) expressed in Escherichia coli at 1000 nM by Z'-LYTE assay relative to control
[15] = target: Dual specificity tyrosine-phosphorylation-regulated kinase 1A (Homo sapiens, UniProt Q13627); assay: Inhibition of recombinant full-length human GST-tagged DYRK1A expressed in baculovirus expression system at 1000 nM by Z'-LYTE assay relative to control
[16] = target: Death-associated protein kinase 1 (Homo sapiens, UniProt P53355); assay: Inhibition of recombinant human N-terminal GST-tagged DAPK1 catalytic domain (1 to 363 residues) expressed in baculovirus expression system at 1000 nM by Adapta kinase assay relative to control
[17] = target: Myotonin-protein kinase (Homo sapiens) (UniProt Q09013); assay: Inhibition of kinase tracer 236 binding to recombinant full-length human GST-tagged DMPK expressed in baculovirus expression system at 1000 nM by Lanthascreen Eu kinase binding assay relative to control
[18] = target: Serine/threonine-protein kinase 17A (Homo sapiens) (UniProt Q9UEE5); assay: Inhibition of kinase tracer 236 binding to recombinant full-length human GST-tagged DRAK1 expressed in baculovirus expression system at 1000 nM by Lanthascreen Eu kinase binding assay relative to control
Mus musculus [19] = assay: Increase in cyclin B1 expression in tumor in BALB/c mouse xenografted with human COLO205 cells at 100 mg/kg, po measured for 16 hrs post-treatment by Western blot analysis; type: functional, organism-based
[20] = Drug metabolism assessed as (4bS)-2-(3-Methyl-1H-pyrazol-4-yl)-5,6,7,8-tetrahydropyrido-[1',2':3,4]imidazo[1,5-a]thieno[3,2-d]pyrimidin-12(4bH)-one formaldehyde adduct formation at 5 nmol after 30 mins in presence of excess formaldehyde by QTOF-UPLC analysis
[21] = target: Death-associated protein kinase 3 (Homo sapiens) (UniProt O43293); assay: Inhibition of full-length human GST-tagged DAPK3 expresssed in baculovirus expression system at 1000 nM by Z'-LYTE assay relative to control
[22] = target: Glycogen synthase kinase-3 beta (Homo sapiens) (UniProt P49841); assay: Inhibition of recombinant full-length human His-tagged GSK3beta expressed in baculovirus expression system at 1000 nM by Z'-LYTE assay relative to control
Mus musculus [23] = assay: In vivo inhibition of […] in BALB/c mouse xenografted with human COLO205 cells assessed as MCM2 phosphorylation at Ser 41 residue in tumor at 100 mg/kg, po measured for 16 hrs post-treatment by Western blot analysis; type: functional, organism-based
[24] = target: Casein kinase I isoform gamma-2 (Homo sapiens) (UniProt P78368); assay: Inhibition of recombinant full-length human His-tagged CSNK1G2 expressed in baculovirus expression system at 1000 nM by Z'-LYTE assay relative to control
[25] = target: Dual specificity protein kinase CLK2 (Homo sapiens) (UniProt P49760); assay: Inhibition of GST-tagged human recombinant CLK2 catalytic domain (137 to 498 residues) expressed in baculovirus expression system at 1000 nM by Z'-LYTE assay relative to control
[26] = target: CDK9/cyclin T1 (Homo sapiens) (UniProt O60563+P50750); assay: Inhibition of full-length recombinant human His-tagged CDK9/Cyclin T1 expressed in baculovirus expression system at 1000 nM by Adapta kinase assay relative to control
[27] = target: Dual specificity protein kinase CLK4 (Homo sapiens) (UniProt Q9HAZ1); assay: Inhibition of kinase tracer 236 binding to recombinant full-length human GST-tagged CLK4 expressed in baculovirus expression system at 1000 nM by Lanthascreen Eu kinase binding assay relative to control
[28] = target: CDK8/Cyclin C (Homo sapiens) (UniProt P49336+P24863); assay: Inhibition of kinase tracer 236 binding to recombinant full-length human His-tagged CDK8/CyclinC expressed in baculovirus expression system at 1000 nM by Lanthascreen Eu kinase binding assay relative to control
[29] = target: Glycogen synthase kinase-3 alpha (Homo sapiens) (UniProt P49840); assay: Inhibition of kinase tracer 236 binding to N-terminal GST-tagged human full length GSK3alpha expressed in baculovirus expression system at 1000 nM by Lanthascreen Eu kinase binding assay relative to control
Mus musculus [30] = assay: Effect on PARP cleavage in tumor in BALB/c mouse xenografted with human COLO205 cells at 100 mg/kg, po measured for 16 hrs post-treatment by Western blot analysis; type: functional, organism-based
[31] = target: Dual specificity tyrosine-phosphorylation-regulated kinase 1B (Homo sapiens, UniProt Q9Y463); assay: Inhibition of recombinant full-length human GST-tagged DYRK1B expressed in baculovirus expression system at 1000 nM by Z'-LYTE assay relative to control
[32] = target: Homeodomain-interacting protein kinase 4 (Homo sapiens) (UniProt Q8NE63); assay: Inhibition of recombinant full-length human N-terminal GST-tagged HIPK4 expressed in baculovirus expression system at 1000 nM by Z'-LYTE assay relative to control

Row | IC50 [1] [nM] | Ratio IC50 (Homo sapiens [2]) | IC50 [3] [nM] | IC50 [4] [nM] | Ratio IC50 (Homo sapiens [5]) | Structure (SMILES) | further results
1 | 450 | 380 | 1.2 | 2800 | 2300 | Cc1n[nH]cc1-c1cc2nc([C@@H]3CCCCCN3)[nH]c(=O)c2s1 | –
2 | 530 | – | 0.43 | 9500 | – | O=c1[nH]c([C@@H]2CCCCN2)nc2cc(-c3c[nH]nc3C(F)(F)F)sc12 | IC50 [6]: 72 nM; IC50 [7]: 0.72 nM; EC50 (COLO 205): 230 nM; IC50 [8]: 41 nM
3 | 270 | 28 | 9.8 | 9900 | 1000 | Cc1n[nH]cc1-c1cc2nc([C@]3(C)CCCN3)[nH]c(=O)c2s1 | –
4 | 1500 | 790 | 1.9 | > 10000 | > 5300 | Cc1n[nH]cc1-c1cc2nc([C@@H]3CCC(C)(C)N3)[nH]c(=O)c2s1 | –
5 | 760 | 360 | 2.1 | 6900 | 3300 | Cc1n[nH]cc1-c1cc2nc([C@@H]3CCN3)[nH]c(=O)c2s1 | –

Continued, molecule first:

Row | Structure (SMILES) | IC50 [1] [nM] | Ratio IC50 (Homo sapiens [2]) | IC50 [3] [nM] | IC50 [4] [nM] | Ratio IC50 (Homo sapiens [5]) | further results
6 | Cc1n[nH]cc1-c1cc2nc([C@H]3NCC[C@@H]3C)[nH]c(=O)c2s1 | 130 | 210 | 0.61 | 620 | 1000 | –
7 | Cc1n[nH]cc1-c1cc2nc([C@@H]3CC=CCN3)[nH]c(=O)c2s1 | 340 | 640 | 0.53 | 4700 | 8900 | –
8 | Cc1n[nH]cc1-c1cc2nc([C@@H]3CCCN3C)[nH]c(=O)c2s1 | 160 | 84 | 1.9 | > 10000 | > 5300 | –
9 | Cc1n[nH]cc1-c1cc2nc(C34CCC(CC3)N4)[nH]c(=O)c2s1 | 96 | 600 | 0.16 | 1500 | 9400 | Drug metabolism [9]: Metabolite not detected; Drug metabolism [10]: Metabolite not detected; Drug metabolism [11]: Metabolite not detected; Drug metabolism [12]: Metabolite not detected
10 | Cc1n[nH]cc1-c1cc2nc([C@H]3CCCCN3)[nH]c(=O)c2s1 | 370 | – | 0.91 | 4800 | – | –
11 | Cc1[nH]ncc1-c1cc2nc([C@@H]3CC4CCN3CC4)[nH]c(=O)c2s1 [SIMUROSERTIB] | 430 | – | 0.26 | – | – | IC50 [6]: 43 nM; IC50 [7]: 0.54 nM; Kd [13]: 0.424 nM; IC50 [8]: 17 nM
12 | Cc1n[nH]cc1-c1cc2nc([C@@H]3C[C@H](C)CN3)[nH]c(=O)c2s1 | 630 | 480 | 1.3 | 3700 | 2800 | –
13 | Cc1n[nH]cc1-c1cc2nc([C@H]3CC4CCN3CC4)[nH]c(=O)c2s1 | 460 | – | 1 | > 10000 | – | –
14 | Cc1n[nH]cc1-c1cc2nc([C@@H]3CCCCN3)[nH]c(=O)c2s1 | – | – | – | – | – | inhibition [14]: 81%; inhibition [15]: 98%; inhibition [16]: 85%; inhibition [17]: 95%; inhibition [18]: 99%; Activity (Mus musculus [19]): Active; Drug metabolism [20]: Metabolite detected; inhibition [21]: 92%; inhibition [22]: 89%; inhibition (Mus musculus [23]): inactive; inhibition [24]: 87%; inhibition [25]: 88%; inhibition [26]: 90%; inhibition [27]: 100%; inhibition [28]: 87%; inhibition [29]: 89%; Activity (Mus musculus [30]): inactive; inhibition [31]: 96%; inhibition [32]: 87%
15 | Cc1n[nH]cc1-c1cc2nc(C34CC(CN3)C4)[nH]c(=O)c2s1 | 220 | – | 0.16 | 2700 | – | IC50 [6]: 77 nM; IC50 [7]: 2.1 nM; EC50 (COLO 205): 750 nM; IC50 [8]: 130 nM
16 | Cc1n[nH]cc1-c1cc2nc([C@@H]3CC4CCN3CC4)[nH]c(=O)c2s1 [SIMUROSERTIB] | – | – | – | – | – | Drug metabolism [9]: Metabolite not detected; Drug metabolism [10]: Metabolite not detected; EC50 (COLO 205): 81 nM; Drug metabolism [11]: Metabolite not detected; Drug metabolism [12]: Metabolite not detected
17 | Cc1n[nH]cc1-c1cc2nc([C@@H]3CCCN3)[nH]c(=O)c2s1 | 360 | 510 | 0.71 | 3900 | 5500 | –

Reference: ChEMBL document CHEMBL4321874 (J Med Chem, 2020)
